Laboratory results: PMC6494879, “Drug resistance emergence in macaques administered cabotegravir long-acting for pre-exposure prophylaxis during acute SHIV infection” (Nature Communications, 2019)

Assays:
RT-SHIV = test: Plasma SHIV RNA (RT-PCR) in RT-SHIV-infected macaques treated with CAB LA; conditions: for Median VL treated: median of treated macaques
Protocol: CAB LA (200 mg/mL injectable stock aqueous suspension) was given at a dose of 50 mg kg^−1 under anesthesia by intramuscular injection into the quadriceps. Volumes greater than 1.0 mL were divided into two injection sites.

[1] = test system: SIV integrase A122T (SIV IN RTV pseudovirus); test: organism not typed; format: cell-based

C[C@H]1CO[C@@H]2Cn3cc(C(=O)NCc4ccc(F)cc4F)c(=O)c(O)c3C(=O)N12 [CAB, cabotegravir]
SHIV RNA copies/ml (RT-SHIV; macaque 01D520, day 14): 213778 copies/ml | SHIV RNA copies/ml (RT-SHIV; macaque 01D520, day 16): 25703 copies/ml | SHIV RNA copies/ml (RT-SHIV; macaque 01D520, day 18): 6247 copies/ml | SHIV RNA copies/ml (RT-SHIV; macaque 01D520, day 22): 1187 copies/ml | SHIV RNA copies/ml (RT-SHIV; macaque 01D520, day 25): 478 copies/ml | SHIV RNA copies/ml (RT-SHIV; macaque 01D520, day 29): 2040 copies/ml | SHIV RNA copies/ml (RT-SHIV; macaque 01D520, day 32): 390 copies/ml | SHIV RNA copies/ml (RT-SHIV; macaque 01D520, day 36): 49 copies/ml | SHIV RNA copies/ml (RT-SHIV; macaque 01D520, day 39): 316 copies/ml | SHIV RNA copies/ml (RT-SHIV; macaque 01D520, day 43): 144 copies/ml | SHIV RNA copies/ml (RT-SHIV; macaque 01D520, day 46): 49 copies/ml | SHIV RNA copies/ml (RT-SHIV; macaque 01D520, day 50): 49 copies/ml | SHIV RNA copies/ml (RT-SHIV; macaque 01D520, day 53): 71 copies/ml | SHIV RNA copies/ml (RT-SHIV; macaque 01D520, day 57): 49 copies/ml | SHIV RNA copies/ml (RT-SHIV; macaque 01D520, day 60): 49 copies/ml | SHIV RNA copies/ml (RT-SHIV; macaque 01D520, day 64): 49 copies/ml | SHIV RNA copies/ml (RT-SHIV; macaque 01D520, day 67): 250 copies/ml | SHIV RNA copies/ml (RT-SHIV; macaque 10D181, day 14): 179379 copies/ml | SHIV RNA copies/ml (RT-SHIV; macaque 10D181, day 16): 39172 copies/ml | SHIV RNA copies/ml (RT-SHIV; macaque 10D181, day 18): 9142 copies/ml | SHIV RNA copies/ml (RT-SHIV; macaque 10D181, day 22): 2006 copies/ml | SHIV RNA copies/ml (RT-SHIV; macaque 10D181, day 25): 507 copies/ml | SHIV RNA copies/ml (RT-SHIV; macaque 10D181, day 29): 2459 copies/ml | SHIV RNA copies/ml (RT-SHIV; macaque 10D181, day 32): 444 copies/ml | SHIV RNA copies/ml (RT-SHIV; macaque 10D181, day 36): 906 copies/ml | SHIV RNA copies/ml (RT-SHIV; macaque 10D181, day 39): 1839 copies/ml | SHIV RNA copies/ml (RT-SHIV; macaque 10D181, day 43): 2744 copies/ml | SHIV RNA copies/ml (RT-SHIV; macaque 10D181, day 46): 344 copies/ml | SHIV RNA copies/ml (RT-SHIV; macaque 10D181, day 50): 294 copies/ml | SHIV RNA copies/ml (RT-SHIV; macaque 10D181, day 53): 756 copies/ml | SHIV RNA copies/ml (RT-SHIV; macaque 10D181, day 57): 241 copies/ml | SHIV RNA copies/ml (RT-SHIV; macaque 10D181, day 60): 971 copies/ml | SHIV RNA copies/ml (RT-SHIV; macaque 10D181, day 64): 2139 copies/ml | SHIV RNA copies/ml (RT-SHIV; macaque 33996, day 14): 154663 copies/ml | SHIV RNA copies/ml (RT-SHIV; macaque 33996, day 16): 9000 copies/ml | SHIV RNA copies/ml (RT-SHIV; macaque 33996, day 18): 1964 copies/ml | SHIV RNA copies/ml (RT-SHIV; macaque 33996, day 22): 112 copies/ml | SHIV RNA copies/ml (RT-SHIV; macaque 33996, day 25): 141 copies/ml | SHIV RNA copies/ml (RT-SHIV; macaque 33996, day 29): 25 copies/ml | SHIV RNA copies/ml (RT-SHIV; macaque 33996, day 32): 55 copies/ml | SHIV RNA copies/ml (RT-SHIV; macaque 33996, day 36): 49 copies/ml | SHIV RNA copies/ml (RT-SHIV; macaque 33996, day 39): 49 copies/ml | SHIV RNA copies/ml (RT-SHIV; macaque 33996, day 43): 49 copies/ml | SHIV RNA copies/ml (RT-SHIV; macaque 33996, day 46): 49 copies/ml | SHIV RNA copies/ml (RT-SHIV; macaque 33996, day 50): 49 copies/ml | SHIV RNA copies/ml (RT-SHIV; macaque 33996, day 53): 49 copies/ml | SHIV RNA copies/ml (RT-SHIV; macaque 33996, day 57): 49 copies/ml | SHIV RNA copies/ml (RT-SHIV; macaque 33996, day 60): 14 copies/ml | SHIV RNA copies/ml (RT-SHIV; macaque 33996, day 64): 59 copies/ml | SHIV RNA copies/ml (RT-SHIV; macaque 35451, day 14): 32948 copies/ml | SHIV RNA copies/ml (RT-SHIV; macaque 35451, day 16): 24534 copies/ml | SHIV RNA copies/ml (RT-SHIV; macaque 35451, day 18): 5566 copies/ml | SHIV RNA copies/ml (RT-SHIV; macaque 35451, day 22): 189 copies/ml | SHIV RNA copies/ml (RT-SHIV; macaque 35451, day 25): 365 copies/ml | SHIV RNA copies/ml (RT-SHIV; macaque 35451, day 29): 487 copies/ml | SHIV RNA copies/ml (RT-SHIV; macaque 35451, day 32): 189 copies/ml | SHIV RNA copies/ml (RT-SHIV; macaque 35451, day 36): 262 copies/ml | SHIV RNA copies/ml (RT-SHIV; macaque 35451, day 39): 194 copies/ml | SHIV RNA copies/ml (RT-SHIV; macaque 35451, day 43): 240 copies/ml | SHIV RNA copies/ml (RT-SHIV; macaque 35451, day 46): 77 copies/ml | SHIV RNA copies/ml (RT-SHIV; macaque 35451, day 50): 318 copies/ml | SHIV RNA copies/ml (RT-SHIV; macaque 35451, day 53): 134 copies/ml | SHIV RNA copies/ml (RT-SHIV; macaque 35451, day 57): 132 copies/ml | SHIV RNA copies/ml (RT-SHIV; macaque 35451, day 60): 90 copies/ml | SHIV RNA copies/ml (RT-SHIV; macaque 35451, day 64): 800 copies/ml | SHIV RNA copies/ml (RT-SHIV; macaque 35451, day 67): 104 copies/ml | SHIV RNA copies/ml (RT-SHIV; macaque CH54, day 14): 680147 copies/ml | SHIV RNA copies/ml (RT-SHIV; macaque CH54, day 16): 142531 copies/ml | SHIV RNA copies/ml (RT-SHIV; macaque CH54, day 18): 87386 copies/ml | SHIV RNA copies/ml (RT-SHIV; macaque CH54, day 22): 4318 copies/ml | SHIV RNA copies/ml (RT-SHIV; macaque CH54, day 25): 279 copies/ml | SHIV RNA copies/ml (RT-SHIV; macaque CH54, day 29): 2506 copies/ml | SHIV RNA copies/ml (RT-SHIV; macaque CH54, day 32): 3049 copies/ml | SHIV RNA copies/ml (RT-SHIV; macaque CH54, day 36): 1291 copies/ml | SHIV RNA copies/ml (RT-SHIV; macaque CH54, day 39): 1031 copies/ml | SHIV RNA copies/ml (RT-SHIV; macaque CH54, day 43): 750 copies/ml | SHIV RNA copies/ml (RT-SHIV; macaque CH54, day 46): 485 copies/ml | SHIV RNA copies/ml (RT-SHIV; macaque CH54, day 50): 803 copies/ml | SHIV RNA copies/ml (RT-SHIV; macaque CH54, day 53): 49 copies/ml | SHIV RNA copies/ml (RT-SHIV; macaque CH54, day 57): 158 copies/ml | SHIV RNA copies/ml (RT-SHIV; macaque CH54, day 60): 2633 copies/ml | SHIV RNA copies/ml (RT-SHIV; macaque CH54, day 64): 1132 copies/ml | SHIV RNA copies/ml (RT-SHIV; macaque CH54, day 67): 4979 copies/ml | SHIV RNA copies/ml (RT-SHIV; macaque CJ92, day 14): 87372 copies/ml | SHIV RNA copies/ml (RT-SHIV; macaque CJ92, day 16): 9159 copies/ml | SHIV RNA copies/ml (RT-SHIV; macaque CJ92, day 18): 1727 copies/ml | SHIV RNA copies/ml (RT-SHIV; macaque CJ92, day 22): 101 copies/ml | SHIV RNA copies/ml (RT-SHIV; macaque CJ92, day 25): 49 copies/ml | SHIV RNA copies/ml (RT-SHIV; macaque CJ92, day 29): 423 copies/ml | SHIV RNA copies/ml (RT-SHIV; macaque CJ92, day 32): 300 copies/ml | SHIV RNA copies/ml (RT-SHIV; macaque CJ92, day 36): 57 copies/ml | SHIV RNA copies/ml (RT-SHIV; macaque CJ92, day 39): 270 copies/ml | SHIV RNA copies/ml (RT-SHIV; macaque CJ92, day 43): 49 copies/ml | SHIV RNA copies/ml (RT-SHIV; macaque CJ92, day 46): 108 copies/ml | SHIV RNA copies/ml (RT-SHIV; macaque CJ92, day 50): 163 copies/ml | SHIV RNA copies/ml (RT-SHIV; macaque CJ92, day 53): 49 copies/ml | SHIV RNA copies/ml (RT-SHIV; macaque CJ92, day 57): 49 copies/ml | SHIV RNA copies/ml (RT-SHIV; macaque CJ92, day 60): 49 copies/ml | SHIV RNA copies/ml (RT-SHIV; macaque CJ92, day 64): 49 copies/ml | SHIV RNA copies/ml (RT-SHIV; macaque CJ92, day 67): 50 copies/ml | Median VL treated (RT-SHIV; day 0): 49 copies/ml | Median VL treated (RT-SHIV; day 2): 21683 copies/ml | Median VL treated (RT-SHIV; day 4): 196903 copies/ml | Median VL treated (RT-SHIV; day 7): 674920 copies/ml | Median VL treated (RT-SHIV; day 9): 6944678 copies/ml | Median VL treated (RT-SHIV; day 11): 4288688 copies/ml | Median VL treated (RT-SHIV; day 14): 167021 copies/ml | Median VL treated (RT-SHIV; day 16): 25119 copies/ml | Median VL treated (RT-SHIV; day 18): 5906 copies/ml | Median VL treated (RT-SHIV; day 22): 688 copies/ml | Median VL treated (RT-SHIV; day 25): 322 copies/ml | Median VL treated (RT-SHIV; day 29): 1263 copies/ml | Median VL treated (RT-SHIV; day 32): 345 copies/ml | Median VL treated (RT-SHIV; day 36): 160 copies/ml | Median VL treated (RT-SHIV; day 39): 293 copies/ml | Median VL treated (RT-SHIV; day 43): 192 copies/ml | Median VL treated (RT-SHIV; day 46): 92 copies/ml | Median VL treated (RT-SHIV; day 50): 229 copies/ml | Median VL treated (RT-SHIV; day 53): 60 copies/ml | Median VL treated (RT-SHIV; day 57): 91 copies/ml | Median VL treated (RT-SHIV; day 60): 69 copies/ml | Median VL treated (RT-SHIV; day 64): 429 copies/ml | Median VL treated (RT-SHIV; day 67): 85 copies/ml | Median VL treated (RT-SHIV; day 71): 205 copies/ml | Median VL treated (RT-SHIV; day 74): 49 copies/ml | Median VL treated (RT-SHIV; day 78): 76 copies/ml | Median VL treated (RT-SHIV; day 81): 64 copies/ml | Median VL treated (RT-SHIV; day 85): 85 copies/ml | Median VL treated (RT-SHIV; day 88): 61 copies/ml | Median VL treated (RT-SHIV; day 92): 59 copies/ml | Median VL treated (RT-SHIV; day 95): 80 copies/ml | Median VL treated (RT-SHIV; day 102): 49 copies/ml | Median VL treated (RT-SHIV; day 106): 61 copies/ml | Median VL treated (RT-SHIV; day 115): 2657 copies/ml | Median VL treated (RT-SHIV; day 120): 15539 copies/ml | Median VL treated (RT-SHIV; day 134): 2817 copies/ml | Median VL treated (RT-SHIV; day 143): 2103 copies/ml | Median VL treated (RT-SHIV; day 148): 2164 copies/ml | Median VL treated (RT-SHIV; day 155): 1667 copies/ml | Median VL treated (RT-SHIV; day 162): 1714 copies/ml | Median VL treated (RT-SHIV; day 170): 1307 copies/ml | Median VL treated (RT-SHIV; day 176): 558 copies/ml | Median VL treated (RT-SHIV; day 183): 4928 copies/ml | Median VL treated (RT-SHIV; day 190): 6516 copies/ml | Median VL treated (RT-SHIV; day 197): 8692 copies/ml | Median VL treated (RT-SHIV; day 204): 9657 copies/ml | EC50 ([1]; HEK293): 1.51 nM | fold-change relative to wild type integrase ([1]; {}): 1.3 fold
